These results are taken from patent US20260226000A1, “Methadone Active Agents and Methods of Use Thereof” (Ensysce Biosciences Inc., priority 2023, published 2026).

Structures are written as SMILES. Where a name gives a salt, the structure may show the parent alone.

The target of data set [1] is hERG (human ether-à-go-go-related gene) channel expressed in CHO cells (Homo sapiens, UniProt Q12809). Kind of data set: ScreenPatch assay, hERG ion channel block (SyncroPatch 384PE patch clamp). The conditions noted are these: for Methadone Active Agent/Methadone Ratio (hERG IC50): IC50 relative to racemic methadone HCl.
Sequence of hERG (human ether-à-go-go-related gene) channel expressed in CHO cells (Q12809 whole entry): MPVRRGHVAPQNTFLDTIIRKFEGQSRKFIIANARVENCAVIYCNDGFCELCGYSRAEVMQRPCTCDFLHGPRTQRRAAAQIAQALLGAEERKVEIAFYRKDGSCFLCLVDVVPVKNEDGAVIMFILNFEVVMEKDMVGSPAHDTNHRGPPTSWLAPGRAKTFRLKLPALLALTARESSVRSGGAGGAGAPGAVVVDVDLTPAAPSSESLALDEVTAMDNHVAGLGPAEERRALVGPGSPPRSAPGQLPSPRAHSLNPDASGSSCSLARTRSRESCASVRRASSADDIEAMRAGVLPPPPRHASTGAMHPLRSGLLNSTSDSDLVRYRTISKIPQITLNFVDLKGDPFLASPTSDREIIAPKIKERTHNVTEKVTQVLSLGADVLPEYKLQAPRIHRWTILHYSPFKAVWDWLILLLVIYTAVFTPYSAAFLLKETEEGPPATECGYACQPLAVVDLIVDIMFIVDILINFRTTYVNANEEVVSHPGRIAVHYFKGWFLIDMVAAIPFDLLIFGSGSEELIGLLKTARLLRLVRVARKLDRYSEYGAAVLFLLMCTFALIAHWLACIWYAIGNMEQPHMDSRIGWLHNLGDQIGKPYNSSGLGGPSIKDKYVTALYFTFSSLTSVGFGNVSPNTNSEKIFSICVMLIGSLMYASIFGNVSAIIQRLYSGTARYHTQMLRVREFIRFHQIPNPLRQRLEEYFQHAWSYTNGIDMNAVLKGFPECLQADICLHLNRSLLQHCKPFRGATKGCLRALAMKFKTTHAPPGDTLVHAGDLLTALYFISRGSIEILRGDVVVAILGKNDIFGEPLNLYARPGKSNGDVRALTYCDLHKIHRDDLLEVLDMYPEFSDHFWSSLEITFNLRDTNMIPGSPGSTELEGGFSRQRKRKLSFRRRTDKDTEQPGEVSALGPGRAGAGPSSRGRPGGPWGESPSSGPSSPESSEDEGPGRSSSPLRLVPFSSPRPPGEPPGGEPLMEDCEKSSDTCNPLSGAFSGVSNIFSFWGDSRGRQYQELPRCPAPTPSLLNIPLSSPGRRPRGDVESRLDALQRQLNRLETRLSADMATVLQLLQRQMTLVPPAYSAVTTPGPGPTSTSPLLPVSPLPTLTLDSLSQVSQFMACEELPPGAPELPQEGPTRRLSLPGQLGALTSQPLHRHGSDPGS
Data set [2] is described as follows: Maximally tolerated dose study by oral gavage administration.

With `C/C=C(/OC(=O)N(C)C(C)CNC(=O)[C@H](CCCNC(=N)N)NC(=O)c1ccccc1)C(C[C@@H](C)N(C)C)(c1ccccc1)c1ccccc1.O=C(O)C(F)(F)F` (stereo partly drawn) [Levo 1ME active agent, (R)-6-(dimethylamino)-4,4-diphenylhept-2-en-3-yl (1-((S)-2-benzamido-5-guanidinopentanamido)propan-2-yl)(methyl)carbamate 2,2,2-trifluoroacetate], in data set [1], the IC50 was above 100 µM and the “Methadone Active Agent/Methadone Ratio (hERG IC50)” value was above 53. Besides, the clinical observations entry in data set [2] (doses up to 100 mg/kg) is recorded as “did not have any clinical observations”.

Take `CCC(=O)C(CC(C)N(C)C)(c1ccccc1)c1ccccc1` (racemic) [Racemic Methadone HCl, Methadone]: it took 1.89 µM to reach half-maximal inhibition in data set [1] (IC50).

Consider `C/C=C(/OC(=O)N(C)C[C@@H](C)NC(=O)[C@H](CCCNC(=N)N)NC(=O)c1ccccc1)C(C[C@@H](C)N(C)C)(c1ccccc1)c1ccccc1.O=C(O)C(F)(F)F` [Levo 2RME active agent, (R)-6-(dimethylamino)-4,4-diphenylhept-2-en-3-yl ((R)-2-((S)-2-benzamido-5-guanidinopentanamido)propyl)(methyl)carbamate 2,2,2-trifluoroacetate], for which, in data set [1], the half-inhibitory concentration (IC50) was found to be 29.4 µM and the “Methadone Active Agent/Methadone Ratio (hERG IC50)” value was determined as 15.6. The clinical observations result in data set [2] (100 mg/kg and 125 mg/kg) is “no clinical observations through 72 hr period or limited observations”. In addition, in data set [2] (50 and 75 mg/kg), the clinical observations result is “some observations”.

In the case of `C/C=C(/OC(=O)N(C)CCCCNC(=O)[C@H](CCCNC(=N)N)NC(=O)c1ccccc1)C(C[C@@H](C)N(C)C)(c1ccccc1)c1ccccc1.O=C(O)C(F)(F)F` [Levo-Butyl active agent, (R)-6-(dimethylamino)-4,4-diphenylhept-2-en-3-yl (4-((S)-2-benzamido-5-guanidinopentanamido)butyl)(methyl)carbamate 2,2,2-trifluoroacetate], in data set [1], the IC50 stood at 51.5 µM and the “Methadone Active Agent/Methadone Ratio (hERG IC50)” value was 27.3. Moreover, the clinical observations entry in data set [2] (100 mg/kg and 125 mg/kg) is recorded as “no clinical observations through 72 hr period or limited observations”. In data set [2] (50 and 75 mg/kg), the clinical observations result is “some observations”.

As a reminder, the IC50 is the midpoint of a concentration-inhibition curve. High values mean weaker potency, low ones greater potency.
